Assays:
[1] = test system: MT-2 human T-cells; assay: General cytotoxicity in MT-2 cells in the absence of virus
[2] = test system: wild-type IIIB strain of HIV-1 in MT-2 human T-cells; assay: Antiviral activity against HIV-1; type: cell-based; settings: HIV-1 IIIB, MT-2 cells, multiplicity of infection 0.1; activity above background

Row | SMILES | general cytotoxicity (in words) ([1]; same (low nanomolar) range of concentrations) | protection of cells from cell death due to viral killing [2] | IC50 ([1]; read-out: IC50 (general cytotoxicity), absence of virus, concentration at which 50 % of the cells are killed) [nM]
1 | O=C1Nc2ccc(Cl)cc2[C@@](C#CC2CC2)(C(F)(F)F)O1 [Efavirenz, reference compound] | no general cytotoxicity | – | –
2 | C[C@H]1CCCC[C@H]2C(=O)C=C[C@H](O)[C@@H]2CC(=O)O1 [Sch-642305] | – | below 50% | 750

From publication PMC3811095 (Chemical science (Royal Society of Chemistry : 2010), 2011)
